Reference: the supplement of paper PMC10331698
± gives the standard deviation of the averaged measurements.

Tests used:
Experiment in all cases: level (log10 ratio to DMSO vehicle control); higher = higher biomarker level / cell amount than vehicle control
Details in all cases: in DMSO
Hexafluoroglutaric acid = compound: O=C(O)C(F)(F)C(F)(F)C(F)(F)C(=O)O [Hexafluoroglutaric acid]
Protocol: (§1)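 BioMAP Diversity Plus panel of 12 human primary cell co-culture systems (3C, 4H, LPS, SAg, BT, BF4T, BE3C, CASM3C, HDF3CGF, KF3CT, MyoF, Mphg). Compounds were added 1 h before stimulation and left for 24 h (MyoF 48 h; BT 72 h for soluble read-outs or 6 d for IgG). Biomarkers were read by ELISA, cytotoxicity by SRB, PBMC viability and proliferation by Alamar Blue. Each well value was divided by the mean of 8 DMSO control wells on the same plate and log10 transformed; duplicate blinded samples were tested at 4 concentrations.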

Azathioprine = compound: Cn1cnc([N+](=O)[O-])c1Sc1ncnc2[nH]cnc12 [Azathioprine]
Protocol: as §1

1H,1H-Heptafluorobutanol = compound: OCC(F)(F)C(F)(F)C(F)(F)F [1H,1H-Heptafluorobutanol]
Protocol: as §1

[1] = compound: O=S(=O)(O)C(F)(F)C(F)(F)C(F)(F)C(F)(F)F [Perfluorobutanesulfonic acid]
Protocol: as §1

[2] = compound: O=C(O)C(F)(F)C(F)(F)C(F)(F)C(F)(F)C(F)(F)C(F)(F)C(F)(F)C(F)(F)C(F)(F)C(F)(F)C(F)(F)C(F)(F)C(F)(F)F [Perfluorotetradecanoic acid]
Protocol: as §1

Perfluorooctanamide = compound: NC(=O)C(F)(F)C(F)(F)C(F)(F)C(F)(F)C(F)(F)C(F)(F)C(F)(F)F [Perfluorooctanamide]
Protocol: as §1

3C:HLA-DR
level (log10) (Hexafluoroglutaric acid; 6700 nM): 0.0225 ± 0.035 | level (log10) (Hexafluoroglutaric acid; 20000 nM): 0.0315 ± 0.047 | level (log10) (Hexafluoroglutaric acid; 60000 nM): 0.038 ± 0.042 | level (log10) (Azathioprine; 1400 nM): 0.006 ± 0.013 | level (log10) (Azathioprine; 4200 nM): -0.001 ± 0.021 | level (log10) (Azathioprine; 13000 nM): 0.005 ± 0.048 | level (log10) (Azathioprine; 38000 nM): 0.005 ± 0.042 | level (log10) (1H,1H-Heptafluorobutanol; 6700 nM): -0.0025 ± 0.0021 | level (log10) (1H,1H-Heptafluorobutanol; 20000 nM): 0.0035 ± 0.012 | level (log10) (1H,1H-Heptafluorobutanol; 60000 nM): 0.005 ± 0.014 | level (log10) ([1]; 6700 nM): -0.0015 ± 0.015 | level (log10) ([1]; 20000 nM): -0.007 ± 0.0057 | level (log10) ([1]; 60000 nM): -0.006 ± 0.013 | level (log10) ([2]; 6700 nM): -0.028 ± 0.03 | level (log10) ([2]; 20000 nM): 0.0025 ± 0.037 | level (log10) (Perfluorooctanamide; 6700 nM): 0.001 ± 0.034 | level (log10) (Perfluorooctanamide; 20000 nM): 0.002 ± 0.017 | level (log10) (Perfluorooctanamide; 60000 nM): 0.0095 ± 0.019

BE3C:CXCL11/I-TAC
level (log10) (Hexafluoroglutaric acid; 6700 nM): 0.0045 ± 0.028 | level (log10) (Hexafluoroglutaric acid; 20000 nM): -0.002 ± 0.024 | level (log10) (Hexafluoroglutaric acid; 60000 nM): 0.0045 ± 0.013 | level (log10) (Azathioprine; 1400 nM): -0.0205 ± 0.035 | level (log10) (Azathioprine; 4200 nM): 0.008 ± 0.0028 | level (log10) (Azathioprine; 13000 nM): 0.01 ± 0.031 | level (log10) (Azathioprine; 38000 nM): 0.025 ± 0.051 | level (log10) (1H,1H-Heptafluorobutanol; 6700 nM): 0.0065 ± 0.0035 | level (log10) (1H,1H-Heptafluorobutanol; 20000 nM): 0.0145 ± 0.023 | level (log10) (1H,1H-Heptafluorobutanol; 60000 nM): 0.0085 ± 0.023 | level (log10) ([1]; 6700 nM): 0.0115 ± 0.012 | level (log10) ([1]; 20000 nM): 0.0065 ± 0.00071 | level (log10) ([1]; 60000 nM): 0.007 ± 0.0071 | level (log10) ([2]; 6700 nM): -0.073 ± 0.052 | level (log10) ([2]; 20000 nM): -0.0135 ± 0.071 | level (log10) (Perfluorooctanamide; 6700 nM): 0.0015 ± 0.013 | level (log10) (Perfluorooctanamide; 20000 nM): 0.004 ± 0.0042 | level (log10) (Perfluorooctanamide; 60000 nM): 0 ± 0.0014

BT:B cell Proliferation
level (log10) (Hexafluoroglutaric acid; 6700 nM): -0.005 ± 0.0042 | level (log10) (Hexafluoroglutaric acid; 20000 nM): -0.0035 ± 0.0078 | level (log10) (Hexafluoroglutaric acid; 60000 nM): 0.011 ± 0.017 | level (log10) (Azathioprine; 1400 nM): -0.0315 ± 0.0064 | level (log10) (Azathioprine; 4200 nM): -0.0305 ± 0.0092 | level (log10) (Azathioprine; 13000 nM): -0.0555 ± 0.005 | level (log10) (Azathioprine; 38000 nM): -0.123 ± 0.026 | level (log10) (1H,1H-Heptafluorobutanol; 6700 nM): 0.0265 ± 0.0078 | level (log10) (1H,1H-Heptafluorobutanol; 20000 nM): -0.0155 ± 0.026 | level (log10) (1H,1H-Heptafluorobutanol; 60000 nM): -0.016 ± 0.075 | level (log10) ([1]; 6700 nM): -0.0025 ± 0.016 | level (log10) ([1]; 20000 nM): 0.0085 ± 0.016 | level (log10) ([1]; 60000 nM): 0.038 ± 0.0014 | level (log10) ([2]; 6700 nM): -0.0055 ± 0.023 | level (log10) ([2]; 20000 nM): -0.0035 ± 0.028 | level (log10) (Perfluorooctanamide; 6700 nM): 0.013 ± 0.024 | level (log10) (Perfluorooctanamide; 20000 nM): 0.0055 ± 0.00071 | level (log10) (Perfluorooctanamide; 60000 nM): -0.028 ± 0.054

3C:CXCL9/MIG
level (log10) (Hexafluoroglutaric acid; 6700 nM): -0.014 ± 0.0085 | level (log10) (Hexafluoroglutaric acid; 20000 nM): -0.005 ± 0.0042 | level (log10) (Hexafluoroglutaric acid; 60000 nM): -0.0075 ± 0.0035 | level (log10) (Azathioprine; 1400 nM): 0.003 | level (log10) (Azathioprine; 4200 nM): 0.003 ± 0.0014 | level (log10) (Azathioprine; 13000 nM): 0.0025 ± 0.005 | level (log10) (Azathioprine; 38000 nM): 0.0125 ± 0.0035 | level (log10) (1H,1H-Heptafluorobutanol; 6700 nM): 0.001 ± 0.021 | level (log10) (1H,1H-Heptafluorobutanol; 20000 nM): 0.002 ± 0.014 | level (log10) (1H,1H-Heptafluorobutanol; 60000 nM): 0 ± 0.017 | level (log10) ([1]; 6700 nM): 0.009 ± 0.016 | level (log10) ([1]; 20000 nM): 0.009 ± 0.017 | level (log10) ([1]; 60000 nM): 0.0175 ± 0.0021 | level (log10) ([2]; 6700 nM): -0.0045 ± 0.0035 | level (log10) ([2]; 20000 nM): 0.0015 ± 0.0021 | level (log10) (Perfluorooctanamide; 6700 nM): 0.01 ± 0.0042 | level (log10) (Perfluorooctanamide; 20000 nM): 0.008 ± 0.014 | level (log10) (Perfluorooctanamide; 60000 nM): 0.031 ± 0.0014

LPS:CD40
level (log10) (Hexafluoroglutaric acid; 6700 nM): 0 ± 0.0028 | level (log10) (Hexafluoroglutaric acid; 20000 nM): -0.0035 ± 0.035 | level (log10) (Hexafluoroglutaric acid; 60000 nM): 0.0085 ± 0.046 | level (log10) (Azathioprine; 1400 nM): -0.041 ± 0.03 | level (log10) (Azathioprine; 4200 nM): -0.04 ± 0.016 | level (log10) (Azathioprine; 13000 nM): -0.08 ± 0.047 | level (log10) (Azathioprine; 38000 nM): -0.148 ± 0.03 | level (log10) (1H,1H-Heptafluorobutanol; 6700 nM): 0.056 ± 0.023 | level (log10) (1H,1H-Heptafluorobutanol; 20000 nM): 0.0345 ± 0.0064 | level (log10) (1H,1H-Heptafluorobutanol; 60000 nM): 0.0045 ± 0.049 | level (log10) ([1]; 6700 nM): -0.0395 ± 0.00071 | level (log10) ([1]; 20000 nM): -0.0375 ± 0.029 | level (log10) ([1]; 60000 nM): -0.0555 ± 0.052 | level (log10) ([2]; 6700 nM): 0.0005 ± 0.12 | level (log10) ([2]; 20000 nM): 0 ± 0.11 | level (log10) (Perfluorooctanamide; 6700 nM): -0.034 ± 0.021 | level (log10) (Perfluorooctanamide; 20000 nM): -0.015 ± 0.0057 | level (log10) (Perfluorooctanamide; 60000 nM): -0.0265 ± 0.028

LPS:SRB
level (log10) (Hexafluoroglutaric acid; 6700 nM): -0.0025 ± 0.011 | level (log10) (Hexafluoroglutaric acid; 20000 nM): -0.0065 ± 0.016 | level (log10) (Hexafluoroglutaric acid; 60000 nM): 0.01 ± 0.025 | level (log10) (Azathioprine; 1400 nM): -0.002 ± 0.0099 | level (log10) (Azathioprine; 4200 nM): -0.0105 ± 0.0078 | level (log10) (Azathioprine; 13000 nM): -0.0215 ± 0.013 | level (log10) (Azathioprine; 38000 nM): -0.039 ± 0.014 | level (log10) (1H,1H-Heptafluorobutanol; 6700 nM): -0.0085 ± 0.0035 | level (log10) (1H,1H-Heptafluorobutanol; 20000 nM): 0.005 ± 0.0014 | level (log10) (1H,1H-Heptafluorobutanol; 60000 nM): -0.003 ± 0.0028 | level (log10) ([1]; 6700 nM): 0.0065 ± 0.011 | level (log10) ([1]; 20000 nM): 0.004 ± 0.0057 | level (log10) ([1]; 60000 nM): 0.002 ± 0.0057 | level (log10) ([2]; 6700 nM): -0.011 ± 0.0042 | level (log10) ([2]; 20000 nM): -0.0055 ± 0.018 | level (log10) (Perfluorooctanamide; 6700 nM): 0.006 ± 0.013 | level (log10) (Perfluorooctanamide; 20000 nM): 0.001 ± 0.0099 | level (log10) (Perfluorooctanamide; 60000 nM): -0.0015 ± 0.011

BE3C:EGFR
level (log10) (Hexafluoroglutaric acid; 6700 nM): -0.0055 ± 0.0035 | level (log10) (Hexafluoroglutaric acid; 20000 nM): -0.0175 ± 0.005 | level (log10) (Hexafluoroglutaric acid; 60000 nM): 0.0025 ± 0.012 | level (log10) (Azathioprine; 1400 nM): 0.007 ± 0.02 | level (log10) (Azathioprine; 4200 nM): -0.0125 ± 0.0035 | level (log10) (Azathioprine; 13000 nM): -0.0055 ± 0.005 | level (log10) (Azathioprine; 38000 nM): -0.0095 ± 0.019 | level (log10) (1H,1H-Heptafluorobutanol; 6700 nM): 0.009 ± 0.014 | level (log10) (1H,1H-Heptafluorobutanol; 20000 nM): 0.0135 ± 0.022 | level (log10) (1H,1H-Heptafluorobutanol; 60000 nM): 0.016 ± 0.027 | level (log10) ([1]; 6700 nM): -0.0045 ± 0.021 | level (log10) ([1]; 20000 nM): 0 ± 0.018 | level (log10) ([1]; 60000 nM): 0.0005 ± 0.0092 | level (log10) ([2]; 6700 nM): 0.01 ± 0.014 | level (log10) ([2]; 20000 nM): 0.0145 ± 0.044 | level (log10) (Perfluorooctanamide; 6700 nM): 0.012 ± 0.011 | level (log10) (Perfluorooctanamide; 20000 nM): -0.002 ± 0.0085 | level (log10) (Perfluorooctanamide; 60000 nM): 0.035 ± 0.016

SAg:CD62E/E-Selectin
level (log10) (Hexafluoroglutaric acid; 6700 nM): -0.004 ± 0.033 | level (log10) (Hexafluoroglutaric acid; 20000 nM): -0.008 ± 0.052 | level (log10) (Hexafluoroglutaric acid; 60000 nM): -0.0025 ± 0.0078 | level (log10) (Azathioprine; 1400 nM): -0.007 ± 0.013 | level (log10) (Azathioprine; 4200 nM): -0.0485 ± 0.023 | level (log10) (Azathioprine; 13000 nM): -0.07 ± 0.027 | level (log10) (Azathioprine; 38000 nM): -0.284 ± 0.018 | level (log10) (1H,1H-Heptafluorobutanol; 6700 nM): 0.003 ± 0.013 | level (log10) (1H,1H-Heptafluorobutanol; 20000 nM): 0.01 ± 0.038 | level (log10) (1H,1H-Heptafluorobutanol; 60000 nM): 0.0125 ± 0.053 | level (log10) ([1]; 6700 nM): -0.0045 ± 0.005 | level (log10) ([1]; 20000 nM): -0.008 ± 0.0085 | level (log10) ([1]; 60000 nM): -0.001 ± 0.024 | level (log10) ([2]; 6700 nM): 0 ± 0.0028 | level (log10) ([2]; 20000 nM): 0.019 ± 0.0028 | level (log10) (Perfluorooctanamide; 6700 nM): -0.0135 ± 0.035 | level (log10) (Perfluorooctanamide; 20000 nM): -0.0265 ± 0.00071 | level (log10) (Perfluorooctanamide; 60000 nM): 0.0145 ± 0.0092
